Data: US10190093B2, “Artificial oocyte activation” (The Curators of the University of Missouri, priority 2013, dated 2019)
Values joined by “and” are separate entries in the source; they are usually repeats but may differ in a detail not shown here. Equal entries are not always repeated. Marks after values point to notes of the source that are not given here.

Columns and labels:
[1] = tested on: activated porcine oocytes; assay: Treatment of chemically (THI/DTT) activated oocytes with TPEN, parthenogenetic embryo development; assay type: cell-based, pig
Protocol: Oocytes were obtained from either pre-pubertal gilt ovaries from an abattoir (Farmland Foods Inc., Milan, Mo.), or sow-derived oocytes that were purchased from Applied Reproductive Technology (Madison, Wis.). Immature oocytes from gilt ovaries were aspirated from medium size (3-6 mm) follicles by using an 18 gauge hypodermic needle attached to a 10 mL syringe. Oocytes with evenly dark cytoplasm and intact surrounding cumulus cells were then selected for maturation. Around 50 cumulus oocyte complexes were place in a well containing 500 μL of maturation medium, TCM 199 (Invitrogen, Grand Island, N.Y.) with 3.05 mM glucose, 0.91 mM sodium pyruvate, 0.57 mM cysteine, 10 ng/mL epidermal growth factor (EGF), 0.5 mg/mL luteinizing hormone (LH), 0.5 mg/mL follicle stimulating hormone (FSH), 10 ng/mL gentamicin (APP Pharm, Schaumburg, Ill.), and 0.1% polyvinyl alcohol (PVA) for 42-44 hr at 38.5° C., 5% CO2, in humidified air. […] At the end of the maturation, the surrounding cumulus cells were removed from the oocytes by vortexing for 3 min in the presence of 0.1% hyaluronidase. Oocytes with a visible polar body were selected in manipulation medium (TCM199 with 0.6 mM NaHCO3, 2.9 mM Hepes, 30 mM NaCl, 10 ng/mL gentamicin, and 3 mg/mL bovine serum albumin [BSA]; and osmolarity of 305) and then used for the experiments. Different oocyte activation methods were used for the experiments. As conventional activation methods, either electrical or chemical activation was used. For electrical activation, mature oocytes were activated in activation medium (0.3 M mannitol, 1.0 mM CaCl2, 0.1 mM MgCl2, and 0.5 mM Hepes) by two direct-current (DC) pulses (1-sec interval) at 1.2 kV/cm for 30 μsec (using BTX Electro Cell Manipulator, Harvard Apparatus, Holliston, Mass.). […] For TPEN mediated activation, mature oocytes were incubated in TL-Hepes media with various concentrations of TPEN for different durations. […] At the end of the culture, where applicable, the frequency of cleaved embryos and blastocysts, and total cell number in the blastocysts were recorded. Hoechst 33342 (1.2 mg/mL) was used to stain nuclei and the embryos were then evaluated by epi-fluorescence microscopy. Treatment of activated oocytes with TPEN was investigated for the potential to increase the efficiency of oocyte activation. […] It was hypothesized that the detrimental effect was due to excess stimuli from Ca^2+ signaling and TPEN. Therefore, lower concentrations of TPEN were introduced after activating oocytes with a conventional method. Incubating activated oocytes with a lower concentration of TPEN increased developmental potential of parthenogenetic embryos.

porcine oocytes = assay: TPEN as main oocyte activating reagent after a smaller Ca2+ increase (electroporation in 0.1 mM Ca2+); assay type: cell-based, pig; settings: for Day 6 Blastocysts (%) / Day 7 Blastocysts (%): 0.1 mM Ca2+ electroporation
Protocol: Oocytes were obtained from either pre-pubertal gilt ovaries from an abattoir (Farmland Foods Inc., Milan, Mo.), or sow-derived oocytes that were purchased from Applied Reproductive Technology (Madison, Wis.). Immature oocytes from gilt ovaries were aspirated from medium size (3-6 mm) follicles by using an 18 gauge hypodermic needle attached to a 10 mL syringe. Oocytes with evenly dark cytoplasm and intact surrounding cumulus cells were then selected for maturation. Around 50 cumulus oocyte complexes were place in a well containing 500 μL of maturation medium, TCM 199 (Invitrogen, Grand Island, N.Y.) with 3.05 mM glucose, 0.91 mM sodium pyruvate, 0.57 mM cysteine, 10 ng/mL epidermal growth factor (EGF), 0.5 mg/mL luteinizing hormone (LH), 0.5 mg/mL follicle stimulating hormone (FSH), 10 ng/mL gentamicin (APP Pharm, Schaumburg, Ill.), and 0.1% polyvinyl alcohol (PVA) for 42-44 hr at 38.5° C., 5% CO2, in humidified air. […] At the end of the maturation, the surrounding cumulus cells were removed from the oocytes by vortexing for 3 min in the presence of 0.1% hyaluronidase. Oocytes with a visible polar body were selected in manipulation medium (TCM199 with 0.6 mM NaHCO3, 2.9 mM Hepes, 30 mM NaCl, 10 ng/mL gentamicin, and 3 mg/mL bovine serum albumin [BSA]; and osmolarity of 305) and then used for the experiments. Different oocyte activation methods were used for the experiments. As conventional activation methods, either electrical or chemical activation was used. For electrical activation, mature oocytes were activated in activation medium (0.3 M mannitol, 1.0 mM CaCl2, 0.1 mM MgCl2, and 0.5 mM Hepes) by two direct-current (DC) pulses (1-sec interval) at 1.2 kV/cm for 30 μsec (using BTX Electro Cell Manipulator, Harvard Apparatus, Holliston, Mass.). […] For TPEN mediated activation, mature oocytes were incubated in TL-Hepes media with various concentrations of TPEN for different durations. […] At the end of the culture, where applicable, the frequency of cleaved embryos and blastocysts, and total cell number in the blastocysts were recorded. Hoechst 33342 (1.2 mg/mL) was used to stain nuclei and the embryos were then evaluated by epi-fluorescence microscopy. […] The ability of TPEN as the main activating reagent was therefore tested. […] Then the oocytes were incubated with various concentrations (1 μM, 5 μM, 10 μM, 100 μM and 200 μM) and durations (10 minutes, 20 minutes, 30 minutes, 1 hour, 2 hours, and overnight) of TPEN. […] Optimal oocyte activation was observed when oocytes were activated by a smaller Ca^2+ signal followed by incubating in 200 μM TPEN for 30 min.

[2] = tested on: SCNT embryos transferred into surrogate gilt; assay: Embryo transfer, in vivo development competence of SCNT embryos
Protocol: To address in vivo competency of SCNT embryos activated by utilizing TPEN, a series of embryo transfers were performed. For the study, at day 1, the SCNT-derived embryos were surgically transferred into the ampullary-isthmic junction of a surrogate gilt at 0 or 1 days after observed estrus. At the end of gestation periods, piglets were recovered through C-section.
Six embryo transfers were performed for the study and two surrogates carried their pregnancy to term, each resulting in two healthy piglets (Table 6). One of the term development was from SCNT embryos that were not treated with a HDAC inhibitor, Scriptaid.

Compound: c1ccc(CN(CCN(Cc2ccccn2)Cc2ccccn2)Cc2ccccn2)nc1 [TPEN, N,N,N′,N′-tetrakis(2-pyridylmethyl)ethane-1,2-diamine]
- % blastocysts ([1]; THI/DTT + 5 μM TPEN, 30 min): 27.2±1.7% and 27.2^b %
- % cleaved ([1]; THI/DTT + 5 μM TPEN, 30 min): 74.6^b %
- Total cell number in blastocysts ([1]; THI/DTT + 5 μM TPEN, 30 min): 33.1 ± 2.6^b
- % blastocysts ([1]; THI/DTT + 10 μM TPEN, 10 min): 21.7^b %
- % cleaved ([1]; THI/DTT + 10 μM TPEN, 10 min): 81.9^b %
- Total cell number in blastocysts ([1]; THI/DTT + 10 μM TPEN, 10 min): 31.2 ± 2.6^b
- blastocyst formation ([1]; chemically activated oocytes incubated with TPEN 100 μM, 45 min): no blastocyst formation was observed
- cell numbers in day 7 blastocysts (porcine oocytes; 1 μM TPEN overnight): 24.80±7.84
- number of blastocysts at day 6 and 7 (porcine oocytes; 1 μM TPEN overnight): increased number of blastocysts
- cell numbers in day 7 blastocysts (porcine oocytes; 10 μM TPEN for 1 hour): 30.17±5.97
- cell numbers in day 7 blastocysts (porcine oocytes; 10 μM TPEN for 2 hours): 29.63±10.47
- cell numbers in day 7 blastocysts (porcine oocytes; 100 μM TPEN for 20 minutes): 50.75±17.94
- Day 6 Blastocysts (%) (porcine oocytes; then TPEN 10 μM, 30 min): 0% and 0^b %
- Day 7 Blastocysts (%) (porcine oocytes; then TPEN 10 μM, 30 min): 5^b %
- Day 6 Blastocysts (%) (porcine oocytes; then TPEN 10 μM, 1 hour): 15^a %
- Day 7 Blastocysts (%) (porcine oocytes; then TPEN 10 μM, 1 hour): 22.5^a %
- Day 6 Blastocysts (%) (porcine oocytes; then TPEN 10 μM, 2 hours): 15^a %
- Day 7 Blastocysts (%) (porcine oocytes; then TPEN 10 μM, 2 hours): 25^a %
- Day 6 Blastocysts (%) (porcine oocytes; then TPEN 100 μM, 10 min): 15^a %
- Day 7 Blastocysts (%) (porcine oocytes; then TPEN 100 μM, 10 min): 15^a %
- Day 6 Blastocysts (%) (porcine oocytes; then TPEN 100 μM, 20 min): 25^a %
- Day 7 Blastocysts (%) (porcine oocytes; then TPEN 100 μM, 20 min): 30^a %
- Day 6 Blastocysts (%) (porcine oocytes; then TPEN 200 μM, 30 min): 37.04^c %
- Day 7 Blastocysts (%) (porcine oocytes; then TPEN 200 μM, 30 min): 41.98^c %
- Day 6 Blastocysts (%) (porcine oocytes; then TPEN 200 μM, 1 hour): 18.75^a %
- Day 7 Blastocysts (%) (porcine oocytes; then TPEN 200 μM, 1 hour): 27.5^a %
- Result of embryo transfer ([2]; SCNT + 5 μM TPEN, 30 min + Scriptaid): 2 normal piglets were and Cycled
- Result of embryo transfer ([2]; SCNT + 5 μM TPEN, 30 min, no Scriptaid): 2 normal piglets were and Cycled
- Result of embryo transfer ([2]; SCNT + 10 μM TPEN, 10 min + Scriptaid): Cycled
- toxicity to SCNT embryos, full term development ([2]; embryo transfers of TPEN treated SCNT embryos): not toxic to the SCNT embryos
